Patent publication US20130115322A1, “Therapeutic Compositions and Methods for Treating Cell Dysplasia Using Extracts From Raspberry and Strawberry” (priority 2003, published 2013)

How the values were obtained:
[1] = system: normal, premalignant and malignant oral epithelial cell lines; test: Growth and cytotoxicity in oral epithelial cell lines; assay type: cell-based, human
Description: In particular, using a panel of normal, premalignant and malignant oral epithelial cell lines, the cellular (growth inhibiting and cytotoxic) effects of phytochemicals found in black raspberry fractions was determined (i.e., F001, F003, DM, and ME/Et, see FIGS. 2A and 2B).

VEGF = conditions: reported; cited from earlier work
[2] = system: azoxymethane-induced aberrant crypt foci; conditions: rat colon, Rao et al.; cited from earlier work
NMBA-induced tumors = conditions: Chen et al. 2004; cited from earlier work
iNOS [3] = target: T1, iNOS (Homo sapiens, UniProt P35228); conditions: cytokine-induced colorectal adenocarcinoma DLD cells; cited from earlier work
T1 construct: its specificity for iNOS was established in cytokine-induced colorectal adenocarcinoma DLD cells; endogenous in cells; host or cells: cytokine-induced colorectal adenocarcinoma DLD cells
T1 sequence (P35228 whole entry): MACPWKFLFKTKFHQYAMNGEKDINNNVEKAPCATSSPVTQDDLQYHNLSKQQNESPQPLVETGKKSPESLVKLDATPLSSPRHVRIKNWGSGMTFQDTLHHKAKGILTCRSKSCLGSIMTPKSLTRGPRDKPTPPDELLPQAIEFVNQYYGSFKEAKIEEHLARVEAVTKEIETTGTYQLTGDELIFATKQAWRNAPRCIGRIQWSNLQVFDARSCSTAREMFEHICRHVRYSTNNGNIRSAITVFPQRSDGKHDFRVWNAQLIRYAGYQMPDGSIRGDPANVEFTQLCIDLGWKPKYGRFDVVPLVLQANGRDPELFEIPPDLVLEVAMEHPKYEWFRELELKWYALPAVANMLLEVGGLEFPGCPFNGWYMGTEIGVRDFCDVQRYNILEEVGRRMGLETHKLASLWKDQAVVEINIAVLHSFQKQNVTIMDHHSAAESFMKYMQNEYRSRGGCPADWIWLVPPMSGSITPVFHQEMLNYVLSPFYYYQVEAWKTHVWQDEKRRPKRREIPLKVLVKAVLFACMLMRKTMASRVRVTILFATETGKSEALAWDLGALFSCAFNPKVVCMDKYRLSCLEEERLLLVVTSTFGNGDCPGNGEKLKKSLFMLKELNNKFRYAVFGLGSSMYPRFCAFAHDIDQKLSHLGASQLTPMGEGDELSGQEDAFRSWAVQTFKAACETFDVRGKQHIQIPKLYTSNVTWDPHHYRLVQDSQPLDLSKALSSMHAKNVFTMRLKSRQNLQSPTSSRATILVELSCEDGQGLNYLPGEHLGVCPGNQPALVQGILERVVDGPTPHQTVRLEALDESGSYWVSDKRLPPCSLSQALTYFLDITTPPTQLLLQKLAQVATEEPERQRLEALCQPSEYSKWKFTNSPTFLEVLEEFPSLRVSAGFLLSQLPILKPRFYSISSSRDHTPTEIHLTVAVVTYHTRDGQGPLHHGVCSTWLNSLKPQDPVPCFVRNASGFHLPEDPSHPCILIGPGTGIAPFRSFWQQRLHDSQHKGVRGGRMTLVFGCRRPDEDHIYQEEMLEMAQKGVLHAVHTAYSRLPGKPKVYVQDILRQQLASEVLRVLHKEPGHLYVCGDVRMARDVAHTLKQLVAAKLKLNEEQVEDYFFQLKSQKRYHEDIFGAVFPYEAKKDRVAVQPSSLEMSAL

iNOS [4] = test: iNOS expression in RE-149 DHD cells; assay type: cell-based, rat; conditions: RE-149 DHD cell lines
Excerpt: (§1) Several BRB extracts and anthocyanins have been administered in JB6 CI 41 mouse epidermal cell lines and RE-149 DHD rat epithelium cancer cell lines, and such model systems are predictive of in vivo biological activity. As further discussed below, the BRB methanol fraction inhibits benzo(a)pyrene-7,8-diol-9,10-epoxide (B(a)PDE)-induced transactivation of transcription factor AP-1 and nuclear factor κB (NFκB, NFKB) activity in JB6 CI 41 cell lines; BRB ethanol extracts inhibited cell proliferation in RE-149 DHD cell lines; and the anthocyanins, cyanidin-3-O-glucoside and cyanidin-3-O-rutinoside derived from BRB ethanol extracts, suppressed the expression of COX-2 and iNOS in RE-149 DHD cell lines. A further embodiment is that even the unpurified components of the BRB ethanol extracts are believed to be safe for human consumption, being derived from a consumable foodstuff using consumable extraction solvents.

COX-2 = COX-2 expression in RE-149 DHD cells; assay type: cell-based, rat; conditions: RE-149 DHD cell lines
Excerpt: as §1

SMILES | angiogenesis by inhibiting VEGF expression (VEGF) | expression of iNOS (iNOS [4]) | expression of COX-2 (COX-2) | further results
O=c1oc2c(O)c(O)cc3c(=O)oc4c(O)c(O)cc1c4c23 [Ellagic acid] | – | – | – | growth of oral cell lines [1]: potent, non-selective, inhibitor
Cc1nc(C2CCCCC2)c(-c2ccc(S(N)(=O)=O)c(F)c2)o1 [JTE-522] | effectively block angiogenesis | – | – | –
CS(=O)(=O)Nc1ccc([N+](=O)[O-])cc1OC1CCCCC1 [NS-398] | effectively block angiogenesis | – | – | –
N=C(N)SCCc1ccc(CCSC(=N)N)cc1 [PBIT, S,S-1,4-phenylene-bis(1,2-ethanediyl)bis-isothiourea] | – | – | – | aberrant crypt foci formation, crypt multiplicity, and iNOS activity [2]: suppressed; NMBA-induced tumors in the rat esophagus (NMBA-induced tumors): inhibit; selectivity for iNOS over endothelial and neuronal NOS (iNOS [3]): selectively inhibit iNOS
OC[C@H]1O[C@@H](Oc2cc3c(O)cc(O)cc3[o+]c2-c2ccc(O)c(O)c2)[C@H](O)[C@@H](O)[C@@H]1O [cyanidin-3-O-glucoside] | – | suppressed | suppressed | –
C[C@@H]1O[C@@H](OC[C@H]2O[C@@H](Oc3cc4c(O)cc(O)cc4[o+]c3-c3ccc(O)c(O)c3)[C@H](O)[C@@H](O)[C@@H]2O)[C@H](O)[C@H](O)[C@H]1O [cyanidin-3-O-rutinoside] | – | suppressed | suppressed | –
